The numbers were not newly measured in patent US20190021382A1, “LONG-LASTING SWEETENER FORMULATIONS” (WM. WRIGLEY JR. COMPANY, priority 2016, published 2019), which cites them from elsewhere.

The conditions of the series: relative to sugar.

On to `C=C1C[C@@]23CC[C@H]4[C@@](C)(CCC[C@@]4(C)C(=O)O[C@@H]4O[C@H](CO)[C@@H](O)[C@H](O)[C@H]4O)[C@@H]2CC[C@]1(O[C@@H]1O[C@H](CO)[C@@H](O)[C@H](O[C@@H]2O[C@H](CO)[C@@H](O)[C@H](O)[C@H]2O)[C@H]1O[C@@H]1O[C@H](CO)[C@@H](O)[C@H](O)[C@H]1O)C3` [Rebaudioside A, rebaudioside A], for which the “times sweeter than sugar” value is listed as 200 times.
